Experimental data taken from ChEMBL document CHEMBL1141175, “Synthesis and antiviral evaluation of cis-substituted cyclohexenyl and cyclohexanyl nucleosides” (J Med Chem, 2005).

What was measured:
Coxsackievirus = test: Effective concentration required to inhibit Coxsackie B3 virus induced cytopathicity in vero cells; type: functional, organism-based
Human alphaherpesvirus 1 = test: Effective concentration required to inhibit herpes simplex virus type 1 Kos strain induced cytopathicity in Hel cells; type: functional, organism-based; conditions: Human alphaherpesvirus 1, HEL

Row | Structure (SMILES) | EC50 (Coxsackievirus) | EC50 (Human alphaherpesvirus 1)
1 | N#Cc1cc([N+](=O)[O-])ccc1Oc1ccc(Cl)c(Cl)c1 | 5.84 µM | 
2 | Nc1nc(O)c2ncn([C@H]3C=CC[C@@H](CO)C3)c2n1 (racemic) | > 200 µM | > 200 µM
3 | Cc1cn([C@H]2CCC[C@@H](CO)C2)c(=O)[nH]c1=O (racemic) | 168 µM | > 200 µM
4 | Cc1cn([C@H]2C=CC[C@@H](CO)C2)c(=O)[nH]c1=O (racemic) | > 200 µM | 63 µM
5 | Nc1ccn([C@H]2C=CC[C@@H](CO)C2)c(=O)n1 (racemic) | > 200 µM | > 200 µM
6 | Nc1ccn([C@H]2CCC[C@@H](CO)C2)c(=O)n1 (racemic) | > 200 µM | 62 µM
7 | Nc1ncnc2c1ncn2[C@H]1C=CC[C@@H](CO)C1 (racemic) | > 200 µM | > 200 µM
8 | Nc1ncnc2c1ncn2[C@H]1CCC[C@@H](CO)C1 (racemic) | > 200 µM | > 200 µM
9 | Nc1nc2c(ncn2COCCO)c(=O)[nH]1 [ACYCLOVIR] |  | 0.32 µM
10 | Nc1nc2c(ncn2COC(CO)CO)c(=O)[nH]1 [GANCICLOVIR] |  | 0.06 µM
